{"source": "patent US20240207202A1", "about": "“COMBINATION THERAPIES TARGETING MITOCHONDRIAL BIOGENESIS FOR CANCER THERAPY” (The Wistar Institute of Anatomy and Biology, priority 2015, published 2024)", "key": {"[1]": {"test_system": "1205Lu melanoma xenograft", "assay": "Tumor volume of 1205Lu melanoma xenografts", "format": "in vivo, mice", "details": "1205Lu xenografts; for % T/C (percentages of tumor volumes): Table 7, 17 days, alone or with PLX4720 200 mg/kg diet"}, "[2]": {"test_system": "mitochondrial respiratory chain complex subunits", "assay": "Expression of mitochondrial respiratory chain complex subunits in WM9 cells (qRT-PCR, RPPA, immunoblot)", "format": "cell-based, human", "protocol": "One μg total mRNA was reverse transcribed using a Maxima First Strand cDNA Synthesis Kit for qRT-PCR (Thermo Fisher). Fast SYBR® Green Master Mix (Life Technologies) was used with cDNA template and primers to evaluate the expression of target genes and GAPDH. Primers used were purchased from Integrated DNA Technologies. Amplifications were performed using an Applied Biosystems® 7500 Real-Time PCR System (Life Technologies). All experiments were performed in triplicate. Expression ratios of controls were normalized to 1. Please see Extended Experimental Procedures for the list of PCR primer sequences. The raw data of gene expression microarrays generated from Illumina Chips were normalized, background-corrected and summarized using the R package “lumi” (Du et al., 2008). […] To reduce false positives, the unexpressed probes were removed. The R package “limma” (Smyth, 2004, 2005) was employed for gene differential expression analysis, followed by multiple test correction by the Benjamini and Hochberg procedure (Benjamini and Hochberg, 1995). […] We also conducted GSEA as previously reported (Subramanian et al., 2005). For GSEA, we analyzed gene sets obtained from the Molecular Signatures Database (broadinstitute.org/gsea/msigdb/). The same differential expression analysis method was applied to RPPA data. Cells were washed with ice-cold PBS containing 100 μM Na3VO4 and scraped off culture dishes. After centrifugation, cell pellets were lysed in buffer containing 10 mM Tris-HCl, pH 7.8, 150 mM NaCl, 1 mM EDTA, 1% Nonidet P-40, 1 mM Na3VO4 and protease inhibitors (Roche complete protease inhibitor tablets). Lysates were cleared by micro-centrifugation and protein concentrations were determined with Protein Assay Dye Reagent Concentrate (Bio-Rad). For western blots, 25 μg of each lysate were run on 15-well 10% or 12% SDS-PAGE gels and transferred onto nitrocellulose membranes using a dye fast Trans-BlotR Turbo™ transfer system (Bio-Rad). Blots were blocked in SEA BLOCK Blocking Buffer (Thermo Scientific) diluted with 1×TBS at 1:1 ratio at room temperature for 1 h, incubated overnight with primary antibody at 4° C., stained with secondary antibodies conjugated to IRDye® Infrared Dyes (LI-COR Biosciences) and then visualized using an Odyssey flatbed scanner (LI-COR Biosciences)."}, "WM9 cells": {"test_system": "WM9 cells", "assay": "Cell viability by CellTiter Glo in WM9 cells", "format": "cell-based, human", "details": "WM9, 72 h, Gamitrinib titrated with PLX4720 10 μM or PLX4720 10 μM and PD0325901 1 μM", "protocol": "Cell viability was measured by the MTT assay or CellTiter-Glo luminescent cell viability assay (Promega). For the assessment of cell clonogenicity, cells were seeded into 12-well tissue culture plates at a density of 500 cells/well as biological triplicates in drug-free medium. Medium was refreshed every 3 or 4 days for 14 days. Colonies were then stained overnight with methanol containing 0.05% crystal violet. After extensive washing with distilled H2O, cells were air-dried and subjected to image acquisition using a Nikon D200 DLSR camera."}}}
{"substance": "Gamitrinib", "values": [{"measurement": "tumor growth", "setting": "[1]; Gamitrinib 15 mg/kg alone", "result": "significantly impaired tumor growth"}, {"measurement": "% T/C (percentages of tumor volumes)", "setting": "[1]; gamitrinib 5 mg/kg QD i.p.", "result": 124.59, "unit": "%"}, {"measurement": "% T/C (percentages of tumor volumes)", "setting": "[1]; gamitrinib 15 mg/kg QD i.p.", "result": 57.3, "unit": "%"}, {"measurement": "expression of mitochondrial respiratory chain complex subunits (SDHA, SDHB, UQCRC2, ATP5H, cyclophilin D) induced by MAPK inhibitors", "setting": "[2]; WM9, 72 h, Gamitrinib 1 μM with PLX4720 10 μM or PLX4720 and PD0325901 1 μM, RPPA", "result": "significant reduction"}, {"measurement": "5 mitochondrial respiratory chain complex subunits", "setting": "[2]; WM9, immunoblotting, 72 h time course", "result": "down-regulated"}, {"measurement": "cell viability", "setting": "WM9 cells", "result": "significantly impaired cell viability"}]}
